From patent US12527789B2, “Inhibition of a tripartite VOR protein complex in multicellular organisms” (TECHNISCHE UNIVERSITÄT DRESDEN, priority 2018, dated 2026)

Test system: nuclear pores and importin β1
Test: NEI-associated late endosomes and transfer of EV-derived components into the nucleoplasm after importazole treatment
Assay type: cell-based
Source text: Referring to FIGS. 1A, 1B and 1C, illustrated are schematic illustrations of data showing the localization and the tripartite structure of a VOR complex. […] Typically, EVs are transported to late endosomes after their endocytosis, wherein the EVs facilitate intercellular communication in diverse cellular processes.

SMILES: CC(Nc1nc(N2CCCC2)nc2ccccc12)c1ccccc1 (centres unmarked) [importazole]
- transfer of EV-derived components into the nucleoplasm of host cells: inhibition of transfer of EV-derived components into the nucleoplasm of host cells
- presence of nuclear envelope invagination (NEI)-associated late endosomes (host cells after importazole treatment): lack of the nuclear envelope invagination (NEI)-associated late endosomes
